In PMC6510909 (Investigational New Drugs, 2018):
Where two headings read alike, the source gives them in different places.

Experiment: Plasma pharmacokinetics on Cycle 1 Day 15, noncompartmental
Assay type: in vivo, human
Conditions: for Cmax / half-life / Tmax / AUC: human, plasma, oral
Protocol: Blood samples were collected from patients prior to the MMB dose and at specified time points up to 24 h post-dose on Cycle 1 Day 15. Pharmacokinetic (PK) parameters were estimated using Phoenix WinNonlin® software (Certara USA, Inc., Princeton, NJ) using standard noncompartmental methods.

N#CCNC(=O)c1ccc(-c2ccnc(Nc3ccc(N4CCOCC4)cc3)n2)cc1 [MMB, momelotinib]
Increases in exposure with dose (100-200 mg MMB): less than dose-proportional | AUCtau, 200 mg once-daily compared with 100 mg once-daily (Cycle 1 Day 15): less than 2 fold | Cmax, 200 mg once-daily compared with 100 mg once-daily (Cycle 1 Day 15): less than 2 fold | Cmax (100 mg, 100 mg MMB QD n = 6, steady state, mean (% coefficient of variation), read-out: Cmax): 258 ng/mL | half-life (100 mg, 100 mg MMB QD n = 6, steady state, median (first quarter, third quarter), read-out: T 1/2 (converted)): 5.4 h | Tmax (100 mg, 100 mg MMB QD n = 6, steady state, median (first quarter, third quarter), read-out: Tmax): 4.5 h | AUC (100 mg, 100 mg MMB QD n = 6, steady state, mean (% coefficient of variation)): 2000 ng·h/mL | AUC (150 mg, 150 mg MMB BID n = 1, steady state): 1520 ng·h/mL | Cmax (150 mg, 150 mg MMB BID n = 1, steady state, read-out: Cmax): 215 ng/mL | half-life (150 mg, 150 mg MMB BID n = 1, steady state, read-out: T 1/2 (converted)): 5 h | Tmax (150 mg, 150 mg MMB BID n = 1, steady state, read-out: Tmax): 3 h | Cmax (150 mg, 150 mg MMB QD n = 3, steady state, mean (% coefficient of variation), read-out: Cmax): 200 ng/mL | half-life (150 mg, 150 mg MMB QD n = 3, steady state, median (first quarter, third quarter), read-out: T 1/2 (converted)): 6.6 h | Tmax (150 mg, 150 mg MMB QD n = 3, steady state, median (first quarter, third quarter), read-out: Tmax): 3.2 h | AUC (150 mg, 150 mg MMB QD n = 3, steady state, mean (% coefficient of variation)): 1680 ng·h/mL | Cmax (200 mg, 200 mg MMB BID n = 3, steady state, mean (% coefficient of variation), read-out: Cmax): 330 ng/mL | half-life (200 mg, 200 mg MMB BID n = 3, steady state, median (first quarter, third quarter), read-out: T 1/2 (converted)): 5.5 h | Tmax (200 mg, 200 mg MMB BID n = 3, steady state, median (first quarter, third quarter), read-out: Tmax): 3 h | AUC (200 mg, 200 mg MMB BID n = 3, steady state, mean (% coefficient of variation)): 1980 ng·h/mL | Cmax (200 mg, 200 mg MMB QD n = 6, steady state, mean (% coefficient of variation), read-out: Cmax): 364 ng/mL | half-life (200 mg, 200 mg MMB QD n = 6, steady state, median (first quarter, third quarter), read-out: T 1/2 (converted)): 5.3 h | Tmax (200 mg, 200 mg MMB QD n = 6, steady state, median (first quarter, third quarter), read-out: Tmax): 3.5 h | AUC (200 mg, 200 mg MMB QD n = 6, steady state, mean (% coefficient of variation)): 3340 ng·h/mL | half-life (Cycle 1 Day 15, across dose levels, approximately, read-out: Median terminal half-life): 5 to 6.6 h | Tmax (Cycle 1 Day 15, across dose levels, approximately, read-out: Time to peak plasma concentration after the first dose of MMB): 3 to 4.5 h | Cmax (across dose levels, approximately, read-out: Maximum plasma concentration (Cmax), overall): ~300 ng/mL | Cmax (converted from approximately 300 ng/mL, read-out: Maximum plasma concentration (Cmax), overall): 720 nM
